Reference: ChEMBL document CHEMBL1147594, “Evaluation of loxoprofen and its alcohol metabolites for potency and selectivity of inhibition of cyclooxygenase-2” (Bioorg Med Chem Lett, 2004)

Key:
[1] = target: T1, Prostaglandin G/H synthase 2 (Homo sapiens, UniProt P35354)
T1 sequence (P35354 whole entry): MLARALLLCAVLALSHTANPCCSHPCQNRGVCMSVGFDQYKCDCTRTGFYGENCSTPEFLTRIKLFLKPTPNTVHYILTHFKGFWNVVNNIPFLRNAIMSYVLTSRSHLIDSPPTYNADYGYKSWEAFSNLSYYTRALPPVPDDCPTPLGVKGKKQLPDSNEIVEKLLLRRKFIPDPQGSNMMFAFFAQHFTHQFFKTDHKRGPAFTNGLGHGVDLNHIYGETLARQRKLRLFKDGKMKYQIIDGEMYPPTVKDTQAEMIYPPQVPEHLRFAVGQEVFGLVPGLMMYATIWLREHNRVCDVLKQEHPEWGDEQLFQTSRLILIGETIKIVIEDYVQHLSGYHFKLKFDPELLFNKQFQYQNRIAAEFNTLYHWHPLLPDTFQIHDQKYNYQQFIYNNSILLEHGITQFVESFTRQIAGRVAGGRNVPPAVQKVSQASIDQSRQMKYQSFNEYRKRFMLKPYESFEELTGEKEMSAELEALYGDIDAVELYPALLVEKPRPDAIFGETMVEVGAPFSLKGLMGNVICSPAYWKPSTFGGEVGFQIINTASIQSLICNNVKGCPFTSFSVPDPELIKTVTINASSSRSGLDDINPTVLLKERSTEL
Description: Inhibitory potency against cyclooxygenase-2 in human whole blood assay

[2] = target: T2, Prostaglandin G/H synthase 1 (Homo sapiens, UniProt P23219); test: Inhibitory activity against recombinant human prostaglandin G/H synthase 1
[3] = target: T2, Prostaglandin G/H synthase 1
Description: Inhibitory potency against Prostaglandin G/H synthase 1 in human whole blood assay

[4] = target: T1, Prostaglandin G/H synthase 2; remark: listed apart in the source
Description: Inhibitory activity against recombinant human Prostaglandin G/H synthase 2

T2 sequence (P23219 whole entry): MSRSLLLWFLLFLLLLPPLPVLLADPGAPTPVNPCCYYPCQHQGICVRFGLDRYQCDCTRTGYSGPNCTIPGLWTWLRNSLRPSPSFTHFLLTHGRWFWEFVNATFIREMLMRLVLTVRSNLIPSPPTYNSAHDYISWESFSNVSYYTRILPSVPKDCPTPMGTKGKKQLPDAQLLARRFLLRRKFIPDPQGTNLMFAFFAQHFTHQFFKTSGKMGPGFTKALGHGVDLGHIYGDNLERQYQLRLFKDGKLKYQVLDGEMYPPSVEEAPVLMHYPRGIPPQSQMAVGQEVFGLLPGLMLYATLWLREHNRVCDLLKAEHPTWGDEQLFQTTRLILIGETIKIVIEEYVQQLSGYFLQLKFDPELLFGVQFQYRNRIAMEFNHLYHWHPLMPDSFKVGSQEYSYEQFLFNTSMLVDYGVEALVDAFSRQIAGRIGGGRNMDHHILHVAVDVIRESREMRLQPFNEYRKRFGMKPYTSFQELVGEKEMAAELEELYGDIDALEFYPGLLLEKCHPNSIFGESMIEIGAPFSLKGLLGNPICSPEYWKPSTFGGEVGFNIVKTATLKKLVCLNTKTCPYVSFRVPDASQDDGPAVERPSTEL

CC(C(=O)O)c1ccc(CC2CCCC2=O)cc1 (stereo not drawn) [LOXOPROFEN]
IC50 [1]: 13.5 µM | IC50 [2]: > 100 µM | IC50 [3]: 6.5 µM | IC50 [4]: > 100 µM

CS(=O)(=O)c1ccc(C2=C(c3ccc(F)c(F)c3)C(=O)OC2)cc1
IC50 [1]: 0.48 µM | IC50 [2]: > 100 µM | IC50 [3]: 15.3 µM | IC50 [4]: 0.23 µM
